IC50 data for one compound are collected here from patent US7511159B2, “Azetidine ring compounds and drugs comprising the same” (Ono Pharmaceutical Co., Ltd., priority 2003, dated 2009).

This assay addresses T1, human EDG-5 (Homo sapiens, UniProt O95136).
T1 construct: expressed in transfected cells; host or cells: Chinese hamster ovary (CHO) cells
Briefly: Evaluation of antagonistic activity for EDG-5 by monitoring the concentration change of intracellular calcium ion. Format: cell-based. The note with it: CHO cells overexpressing human EDG-5 gene, S1P 100 nM stimulation, Fura2, read-out: IC50 value (concentration showing an inhibition rate of 50%). The protocol:
Evaluation of Antagonistic Activity for EDG-5 by Monitoring the Concentration Change of Intracellular Calcium Ion
Chinese hamster ovary (CHO) cells in which human EDG-5 gene was overexpressed were cultured in Ham's F12 medium (GIBCO BRL) containing 10% FBS (fetal bovine serum), penicillin/streptomycin. and blasticidin (5 μg/mL). Thus cultured cells were incubated in a Fura2 (5 μM)-AM solution [Ham's F12 medium containing FBS (10%), HEPES buffer (20 mM, pH7.4), and probenecid (2.5 mM)] at 37° C. for 60 minutes. Then the cells were washed once with a Hanks' solution (2.5 mM) containing probenecid and immersed into the Hanks' solution. A plate was set on a fluorescent drug screening system, and the concentration of intracellular calcium ion was measured for 30 seconds with no stimulation. A solution of a compound (dimethyl sulfoxide (DMSO) solution of 1 nM to 10 μM at the final concentration) to be tested was added. After lapse of 5 minutes, S1P (final concentration: 100 nM) was added, the concentration of intracellular calcium ion before and after the addition of SiP was measured every 3 seconds (excitation wave length: 340 nm and 380 nm; fluorescent wave length: 500 nm). […]

T1 sequence (O95136 whole entry): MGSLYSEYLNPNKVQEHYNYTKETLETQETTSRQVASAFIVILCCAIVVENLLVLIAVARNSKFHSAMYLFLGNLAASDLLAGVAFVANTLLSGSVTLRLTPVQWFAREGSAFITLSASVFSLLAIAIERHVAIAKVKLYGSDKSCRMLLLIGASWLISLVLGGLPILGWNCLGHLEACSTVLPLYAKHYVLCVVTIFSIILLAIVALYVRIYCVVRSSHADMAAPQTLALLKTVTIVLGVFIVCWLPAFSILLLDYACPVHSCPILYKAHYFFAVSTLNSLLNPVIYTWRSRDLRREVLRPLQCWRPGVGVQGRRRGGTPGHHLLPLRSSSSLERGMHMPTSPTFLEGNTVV

Take `CCN(c1ccccc1)C1CN(C(=O)Nc2cc(C(F)(F)F)cc(C(F)(F)F)c2)C1` [Example 3(18), N-[3,5-Bis(trifluoromethyl)phenyl]-3-[ethyl(phenyl)amino]azetidine-1-carboxamide]: the IC50 worked out at 950 nM.
